Experiments:
hTLR2 = target: T1, hTLR2 (Homo sapiens, UniProt O60603); experiment: TLR2-transfected HEK 293 Blue cells, secreted alkaline phosphatase (NF-κB activity); assay type: cell-based; settings: 48 hours, FIGS. 3, 6, 7
T1 construct: host or cells: HEK 293 Blue Cells
Text: (§1) To test if the 35 amino acid N-terminus of annexin II, which distinguishes annexin II from other annexins, contains adjuvant activity, we pulsed bone marrow-derived dendritic cells (BMDC) with gp100+/−A2OVA, fusion peptide containing this 35 amino acid fragment. […] We then tested whether this fusion peptide enhanced adjuvant activity over that of addition of OVA and full length annexin II protein. BMDC were pulsed with A2OVA and we measured the OVA-specific OT-1 CD8 T cell response. […] To further investigate the ability to derive a novel single antigen fusion peptide, we constructed OVA fusion peptides in which an OVA peptide (SEQ ID NO:9) was fused to either an annexin II N-terminal fragment or a scrambled 35 amino acid peptide to produce SEQ ID NO:30 and SEQ ID NO:29, respectively. Peptides were pulsed on TLR2 transfected cells and alkaline phosphatase activity was used to determine NF-κB activity (FIG. 3).
HEK 293 Blue Cells (Invivogen, San Diego, Calif.) stably transfected with hTLR2 were pulsed with annexin II-OVA fusion protein (A2OVA, SEQ ID NO:32) at equal concentration as annexin II monomer (A2 Peptide, SEQ ID NO:28). Scrambled annexin II N-terminus polypeptide (SEQ ID NO:29, Scrambled) and an annexin II fragment (SEQ ID NO:30, Minus p11) were used as controls. Cells were incubated for 48 hours. Following incubation, supernatant was added to Quanti-Blue (Invivogen, San Diego, Calif.) for secreted alkaline phosphatase detection.
(§2) TLR2-transfected HEK 293 Blue Cells and TLR4-transfected HEK 293 Blue Cells (Invivogen, San Diego, Calif.) were pulsed with the N-terminal 15 amino acid annexin II fragment peptide (15aa Peptide, SEQ ID NO:5) at different concentrations. Cells were incubated for 48 hours. Following incubation, supernatant was added to Quanti-Blue (Invivogen, San Diego, Calif.) for secreted alkaline phosphatase detection.
as §2, with “or one of the annexin II variants shown in Table 1.” for “at different concentrations.”

breast tumor = experiment: Breast-tumor-bearing mice vaccinated intraperitoneally, tumor growth and survival; assay type: in vivo, BALB/c mice; settings: 10 consecutive days intraperitoneally; for survival of tumor bearing mice: breast tumor bearing BALB/c mice, compared to saline or scrambled control, FIG. 5
Description: (§3) Next, we investigated the use of the A2OVA in vivo. A2OVA peptide (SEQ ID NO:32) was given to non-tumor bearing mice as described in FIG. 4A to see if they would elicit an OVA specific T cell response. […] To determine if the 35 amino acid annexin II fragment can extend survival in tumor bearing animals in an antigen non-specific manner, we used breast tumor bearing BALB/c mice, which lack the MHC haplotype to present SIINFEKL. Mice were treated with A2OVA peptide as summarized in FIG. 5A and followed for survival.

[1] = system: bone marrow derived dendritic cells; experiment: BMDCs (wild-type, TLR2-/-, TLR4-/-, MyD88-/-) pulsed with peptide, CD80/CD86 by flow cytometry; assay type: cell-based, mice; settings: 50 μg peptide, 48 hours, TLR2, TLR4 and MyD88 knockout BMDCs, CD11c+MHCII+ gate; for CD80 co-stimulatory molecule expression (MFI): FIG. 11; for CD86 co-stimulatory molecule expression (MFI): FIG. 12
Description: To further characterize the activity of the A-6 variant (SEQ ID NO:17), BMDCs from wild-type, TLR2 knockout, TLR4 knockout, and MyD88 knockout mice were pulsed with the peptide and analyzed for co-stimulatory molecules CD80 (FIG. 11) and CD86 (FIG. 12).
BDMCs (wild-type, TLR2^−/−, TLR4^−/−, and MyD88^−/−) were cultured with 20 ng/mL GM-CSF for six days, then pulsed with 50 ng Pam3CSK4, 50 ng LPS, 50 μg of the N-terminal 15 amino acid annexin II fragment peptide (SEQ ID NO:5, 15aa A2p), or 50 μg of annexin II variant A-6 (SEQ ID NO:17, 15aa A2p6 AL). After 48 hours, cells were stained for CD11c, MHC II, CD80, and CD86 and analyzed by flow cytometry. MFI shown is from a live cell, CD11c^+MHCII^+ gate.

[2] = system: OVA specific CD8+ T cell response; experiment: Vaccination of BL/6 mice, CD8+SIINFEKL+ expansion in whole blood on Day 8; assay type: in vivo; settings: four consecutive days, hind leg
Description: as §3
BL/6 mice also were vaccinated for four consecutive days in the hind leg with ovalbumin (OVA), ovalbumin+ and 50 μg of the N-terminal 15 amino acid annexin II fragment peptide (SEQ ID NO:5, 15aa), or ovalbumin+50 μg the annexin II variant A-6 (Table 1, SEQ ID NO:17, 15aaP6). On Day 8, mice were bled and whole blood was analyzed for CD8^+SIINFEKL^+ expansion.

TLR4 = target: T2, TLR4 (Homo sapiens, UniProt O00206); experiment: TLR4-transfected HEK 293 Blue cells, secreted alkaline phosphatase (NF-κB activity); assay type: cell-based; settings: 48 hours, FIGS. 6, 7
T2 construct: host or cells: HEK 293 Blue Cells
Text: To better characterize the 35 amino acid N-terminus as an adjuvant, we serially removed five amino acids from the C-terminus end of the N-terminal fragment to produce annexin II variants SEQ ID NO:2, SEQ ID NO:3, SEQ ID NO:4, SEQ ID NO:5, and SEQ ID NO:6. We tested the resulting peptides for NF-κB activity. […] To test the ability of the 15 amino acid annexin II fragment (SEQ ID NO:5) to stimulate an immune response, and to determine whether its ability to do so is mediated through TLR2, wild-type and TLR-2 knockout mice were given OVA±annexin II or OVA±the 15 amino acid N-terminal annexin II fragment (SEQ ID NO:5).
as §2
TLR2-transfected HEK 293 Blue Cells and TLR4-transfected HEK 293 Blue Cells (Invivogen, San Diego, Calif.) were pulsed with the N-terminal 15 amino acid annexin II fragment peptide (15aa Peptide, SEQ ID NO:5) or one of the annexin II variants shown in Table 1. Cells were incubated for 48 hours. […]

[3] = system: bone marrow derived dendritic cells; experiment: BMDCs (wild-type, TLR4-/-, MyD88-/-) pulsed with peptide, TNF in supernatant by bead array; assay type: cell-based, mice; settings: 50 μg peptide, 48 hours, TLR4 knockout and MyD88 knockout BMDCs, FIG. 10
Description: To determine the 15 amino acid N-terminal annexin II fragment's activity on dendritic cells, BMDCs were derived for wild-type, TLR4 knockout, and MyD88 knockout mice. The various BMDCs and pulsed with the 15 amino acid N-terminal annexin II fragment (SEQ ID NO:5).
BMDCs (wild-type, TLR4^−/−, and MyD88^−/−) were cultured with 20 ng/mL GM-CSF for six days, then pulsed with 50 ng Pam3CSK4, 50 ng LPS, or 50 μg of the N-terminal 15 amino acid annexin II fragment peptide (SEQ ID NO:5, A2-15aa). After 48 hours, cell culture supernatant was assayed for TNF by bead array.

[4] = system: gp100-specific CD8 T cell response; experiment: BMDCs pulsed with hgp100 25-33 plus peptide, co-cultured with Pmel CD8+ T cells, IFN-γ by bead array; assay type: cell-based, C57BL/6 mice; settings: BMDC pulsed with gp100 +/- A2OVA; equal concentration and equal molecular ratio compared to full-length annexin II; FIG. 1
Text: as §1
Bone marrow derived dendritic cells (BMDCs) were differentiated from C57BL/6 mice and pulsed with hgp10025-33 (SEQ ID NO: 27) with annexin II-OVA fusion protein (SEQ ID NO:32) at equal concentration (*) or equal molecular ratio (**) as A2 monomer (SEQ ID NO:28) and incubated for 24 hours. Annexin A2 monomer was used as a positive control. […] IFN-γ in the tissue culture supernatant was quantified by bead array.

[5] = system: OVA-specific OT-1 CD8 T cell response; experiment: BMDCs pulsed with OVA peptide/fusion, co-cultured with OT-I CD8+ T cells, IFN-γ by bead array; assay type: cell-based, mice; settings: BMDC pulsed with A2OVA versus A2 monomer + OVA as separate agents; FIG. 2
Text: as §1
BMDCs were pulsed with OVA248-274 (SEQ ID NO:31), annexin II (A2 monomer, SEQ ID NO:28), a combination of OVA248-274 and annexin II (A2 monomer+OVA), or annexin II-OVA fusion protein (A2OVA, SEQ ID NO:32), and incubated for 24 hours. Purified OT-I CD8^+ T cells were added and co-cultured for an additional 48 hours. IFN-γ in the tissue culture supernatant was quantified by bead array.

T1 sequence (O60603 21-784): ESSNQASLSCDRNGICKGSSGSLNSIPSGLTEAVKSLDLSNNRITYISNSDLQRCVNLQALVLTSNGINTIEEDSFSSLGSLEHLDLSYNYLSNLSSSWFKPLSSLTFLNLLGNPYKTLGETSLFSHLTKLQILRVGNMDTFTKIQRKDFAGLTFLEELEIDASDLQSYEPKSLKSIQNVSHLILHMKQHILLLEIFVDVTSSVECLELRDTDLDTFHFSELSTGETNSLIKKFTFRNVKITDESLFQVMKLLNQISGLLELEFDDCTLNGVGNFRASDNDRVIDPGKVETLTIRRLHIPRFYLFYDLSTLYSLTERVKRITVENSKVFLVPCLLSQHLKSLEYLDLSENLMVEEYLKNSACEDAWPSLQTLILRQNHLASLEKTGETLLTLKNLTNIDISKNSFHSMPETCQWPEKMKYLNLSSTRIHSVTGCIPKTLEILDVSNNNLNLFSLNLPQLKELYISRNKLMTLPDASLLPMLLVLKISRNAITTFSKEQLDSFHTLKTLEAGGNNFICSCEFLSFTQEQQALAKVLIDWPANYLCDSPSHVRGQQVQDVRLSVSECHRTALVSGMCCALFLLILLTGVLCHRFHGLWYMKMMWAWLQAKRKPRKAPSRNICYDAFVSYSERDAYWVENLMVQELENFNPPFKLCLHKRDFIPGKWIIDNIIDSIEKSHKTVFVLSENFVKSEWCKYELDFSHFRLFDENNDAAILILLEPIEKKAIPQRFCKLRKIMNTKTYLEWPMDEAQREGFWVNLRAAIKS
T2 sequence (O00206 24-839, species assumed): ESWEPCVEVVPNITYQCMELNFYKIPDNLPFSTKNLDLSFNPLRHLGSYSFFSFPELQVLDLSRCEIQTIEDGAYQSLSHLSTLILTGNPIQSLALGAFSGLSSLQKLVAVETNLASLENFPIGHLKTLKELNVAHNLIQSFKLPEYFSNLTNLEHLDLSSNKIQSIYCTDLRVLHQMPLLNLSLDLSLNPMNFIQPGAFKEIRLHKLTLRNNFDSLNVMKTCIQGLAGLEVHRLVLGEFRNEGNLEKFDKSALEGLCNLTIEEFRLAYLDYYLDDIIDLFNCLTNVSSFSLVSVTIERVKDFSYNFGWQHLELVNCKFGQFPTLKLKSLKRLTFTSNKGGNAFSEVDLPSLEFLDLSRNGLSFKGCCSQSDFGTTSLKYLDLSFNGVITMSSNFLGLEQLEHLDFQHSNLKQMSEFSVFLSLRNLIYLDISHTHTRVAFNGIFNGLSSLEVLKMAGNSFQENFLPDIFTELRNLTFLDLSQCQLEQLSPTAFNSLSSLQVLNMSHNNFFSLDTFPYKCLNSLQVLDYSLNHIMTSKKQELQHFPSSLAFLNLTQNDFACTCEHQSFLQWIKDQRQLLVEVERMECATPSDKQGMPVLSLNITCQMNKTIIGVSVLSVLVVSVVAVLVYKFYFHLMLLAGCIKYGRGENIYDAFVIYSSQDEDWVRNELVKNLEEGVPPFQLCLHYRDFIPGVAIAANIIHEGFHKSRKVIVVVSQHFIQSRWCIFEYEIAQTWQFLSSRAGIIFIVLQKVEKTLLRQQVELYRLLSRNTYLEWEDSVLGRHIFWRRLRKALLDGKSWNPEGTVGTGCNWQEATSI
T2 sequence (Q9Y6Y9 17-160 partner limits assumed, species assumed): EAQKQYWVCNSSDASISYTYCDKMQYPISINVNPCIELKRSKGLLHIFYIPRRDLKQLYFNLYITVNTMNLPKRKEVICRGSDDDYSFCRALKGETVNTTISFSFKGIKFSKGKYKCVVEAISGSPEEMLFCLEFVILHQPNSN

Sequence	NF-κB activity through TLR2 (alkaline phosphatase) (hTLR2)	survival of tumor bearing mice (breast tumor)	CD80 co-stimulatory molecule expression (MFI) [1]	CD86 co-stimulatory molecule expression (MFI) [1]	OVA specific T cell priming in vivo (CD8+SIINFEKL+ expansion) ([2]; BL/6 mice, ovalbumin + 50 μg peptide, Day 8, versus 15aa fragment, FIG. 9)	NF-κB activity through TLR4 (alkaline phosphatase) (TLR4)	TNF secretion from BMDCs [3]	adjuvant activity in gp100-specific CD8 T cell response (IFN-γ) [4]	IFNγ response of OVA-specific OT-1 CD8 T cells [5]	antigen specific CD8+ T cell response in vivo (CD8+SIINFEKL+ expansion) ([2]; non-tumor bearing BL/6 mice, Poly:ICLC and 50 μg peptide, Day 8, FIG. 4B)	tumor size (breast tumor; breast tumor bearing mice, FIG. 5B)
DHSTPPSAYGSVKPYTNFDAEEQLESIINFEKLTEWT (DHSTPPSAYGSVKPYTNFDAEEQLESIINFEKLTEWT; annexin II peptide fragment minus p11) [SEQ ID NO:30, reference compound]	did not elicit a response	conferred no survival benefit									
STVHEALCKL SLEGD (STVHEALCKLSLEGD; annexin II variant polypeptide) [A-6, alanine for isoleucine substitution at position six of a 15 amino acid annexin II fragment]	enhanced TLR2 and TLR4 signaling		increased CD80 and CD86 co-stimulatory molecule expression in a TLR4- and MyD88-dependent manner	increased CD80 and CD86 co-stimulatory molecule expression in a TLR4- and MyD88-dependent manner	enhanced OVA specific T cell priming in vivo	enhanced TLR2 and TLR4 signaling					
STVHEILCKL SLEGD (STVHEILCKLSLEGD; annexin II variant polypeptide) [SEQ ID NO:5, N-terminal 15 amino acid annexin II fragment peptide]	activated TLR2		increased CD80 and CD86 co-stimulatory molecule expression in a TLR4- and MyD88-dependent manner	increased CD80 and CD86 co-stimulatory molecule expression in a TLR4- and MyD88-dependent manner			mediated induction of TNF secretion and that the activity is MyD88-dependent				
STVHEILCKLSLEGDHSTPPSAYGSVKPYTNFDAEEQLESIINFEKLTEWT (STVHEILCKLSLEGDHSTPPSAYGSVKPYTNFDAEEQLESIINFEKLTEWT; annexin II-OVA fusion protein (A2OVA) polypeptide) [fusion peptide of the 35 amino acid annexin II N-terminus and OVA peptide]	stimulated NF-κB through TLR2	enhanced survival compared to saline or scrambled control						exerted adjuvant activity	induced an IFNγ response superior to that of A2 monomer (A2m)+OVA added as separate agents	stimulated an antigen specific CD8^+ T cell response in vivo	reducing tumor size in vivo

— patent US10206986B2, “Annexin II variant compositions and methods” (REGENTS OF THE UNIVERSITY OF MINNESOTA, priority 2013, dated 2019)
